Test results reported in the supplement of paper PMC4862054.

Columns and labels:
Conditions in all cases: incubation time: 72 h
[1] = system: BT-474; assay: normalised response (% of control), CellTiter-Glo; higher = more viable cells (100 = DMSO, 0 = benzethonium chloride kill control)
Method: (§1)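 DSRT, 72 h incubation, CellTox Green / CellTiter-Glo readout. Signal is normalised to DMSO and benzethonium chloride controls. Value is the normalised response at the highest dose.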

[2] = system: Hs578T; assay: as above
Method: as §1

[3] = system: CAL-120; assay: as above
Method: as §1

[4] = system: MDA-MB-468; assay: as above
Method: as §1

[5] = system: HDQ-P1; assay: as above
Method: as §1

[6] = system: CAL-85-1; assay: as above
Method: as §1

[7] = system: HCC1937; assay: as above
Method: as §1

[8] = system: DU-4475; assay: as above
Method: as §1

[9] = system: MDA-MB-453; assay: as above
Method: as §1

[10] = system: HCC1143; assay: as above
Method: as §1

[11] = system: SK-BR-3; assay: as above
Method: as §1

[12] = system: MFM-223; assay: as above
Method: as §1

[13] = system: MDA-MB-436; assay: as above
Method: as §1

[14] = system: CAL-51; assay: as above
Method: as §1

[15] = system: BT-549; assay: as above
Method: as §1

[16] = system: CAL-148; assay: as above
Method: as §1

[17] = system: MCF-10A; assay: as above
Method: as §1

[18] = system: HCC1599; assay: as above
Method: as §1

[19] = system: MDA-MB-231; assay: as above
Method: as §1

[20] = system: BT-474; assay: normalised response (% of control), CellTox Green; higher = less cell death (100 = DMSO, 0 = benzethonium chloride kill control)
Procedure, shortened: (§2)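 Breast cancer cell lines (20 µl suspension) were seeded into 384-well plates holding compound at 5 concentrations in 10-fold steps over a compound-specific 10,000-fold range, then incubated 72 h. CellTox Green fluorescence (485/520 nm) was read first, then CellTiter-Glo luminescence after 10 min at room temperature. Each plate was normalised to 0.1 % DMSO (100) and a positive kill control (0). Each value is the normalised signal at a single concentration of the series.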

[21] = system: Hs578T; assay: as above
Procedure, shortened: as §2

[22] = system: CAL-120; assay: as above
Procedure, shortened: as §2

[23] = system: MDA-MB-468; assay: as above
Procedure, shortened: as §2

[24] = system: HDQ-P1; assay: as above
Procedure, shortened: as §2

[25] = system: CAL-85-1; assay: as above
Procedure, shortened: as §2

[26] = system: HCC1937; assay: as above
Procedure, shortened: as §2

[27] = system: DU-4475; assay: as above
Procedure, shortened: as §2

[28] = system: MDA-MB-453; assay: as above
Procedure, shortened: as §2

[29] = system: HCC1143; assay: as above
Procedure, shortened: as §2

[30] = system: MFM-223; assay: as above
Procedure, shortened: as §2

[31] = system: MDA-MB-436; assay: as above
Procedure, shortened: as §2

[32] = system: CAL-51; assay: as above
Procedure, shortened: as §2

[33] = system: BT-549; assay: as above
Procedure, shortened: as §2

[34] = system: CAL-148; assay: as above
Procedure, shortened: as §2

[35] = system: MCF-10A; assay: as above
Procedure, shortened: as §2

[36] = system: HCC1599; assay: as above
Procedure, shortened: as §2

[37] = system: MDA-MB-231; assay: as above
Procedure, shortened: as §2

SMILES: C=CC(=O)Nc1cc2c(Nc3ccc(F)c(Cl)c3)ncnc2cc1OCCCN1CCOCC1 [Canertinib] (10000 nM)
- normalised response [1]: 15.9%
- normalised response [2]: 17.4%
- normalised response [3]: 26.6%
- normalised response [4]: 2.49%
- normalised response [5]: 1.5%
- normalised response [6]: 3.6%
- normalised response [7]: 14.5%
- normalised response [8]: 74.1%
- normalised response [9]: 25.5%
- normalised response [10]: 24.3%
- normalised response [11]: 24.4%
- normalised response [12]: 26.4%
- normalised response [13]: 22.2%
- normalised response [14]: 3.06%
- normalised response [15]: 4.73%
- normalised response [16]: 42.9%
- normalised response [17]: 0.13%
- normalised response [18]: 66.4%
- normalised response [19]: 5%
- normalised response [20]: 55.4%
- normalised response [21]: -21.7%
- normalised response [22]: 31%
- normalised response [23]: -36.9%
- normalised response [24]: 37.8%
- normalised response [25]: -11%
- normalised response [26]: 80.3%
- normalised response [27]: 89.5%
- normalised response [28]: 87.6%
- normalised response [29]: 84.5%
- normalised response [30]: 26.9%
- normalised response [31]: 87.1%
- normalised response [32]: 5.47%
- normalised response [33]: 55.1%
- normalised response [34]: 65.4%
- normalised response [35]: -28.8%
- normalised response [36]: 111%
- normalised response [37]: 13.5%

SMILES: COc1cc2c(Oc3ccc4[nH]c(C)cc4c3F)ncnc2cc1OCCCN1CCCC1 [Cediranib] (1000 nM)
- normalised response [1]: 104%
- normalised response [2]: 84.7%
- normalised response [3]: 90.4%
- normalised response [4]: 90.8%
- normalised response [5]: 80.8%
- normalised response [6]: 100%
- normalised response [7]: 91.7%
- normalised response [8]: 95.5%
- normalised response [9]: 103%
- normalised response [10]: 99.8%
- normalised response [11]: 106%
- normalised response [12]: 56.6%
- normalised response [13]: 100%
- normalised response [14]: 128%
- normalised response [15]: 83.6%
- normalised response [16]: 110%
- normalised response [17]: 70.5%
- normalised response [18]: 92.8%
- normalised response [19]: 105%
- normalised response [20]: 95.7%
- normalised response [21]: 127%
- normalised response [22]: 88.1%
- normalised response [23]: 153%
- normalised response [24]: 102%
- normalised response [25]: 78.4%
- normalised response [26]: 114%
- normalised response [27]: 103%
- normalised response [28]: 105%
- normalised response [29]: 123%
- normalised response [30]: 91.4%
- normalised response [31]: 94.6%
- normalised response [32]: 96.8%
- normalised response [33]: 97.4%
- normalised response [34]: 101%
- normalised response [35]: 91.5%
- normalised response [36]: 112%
- normalised response [37]: 117%

SMILES: Cc1ccc(-c2cc(C(F)(F)F)nn2-c2ccc(S(N)(=O)=O)cc2)cc1 [Celecoxib] (10000 nM)
- normalised response [1]: 92.9%
- normalised response [2]: 97.3%
- normalised response [3]: 106%
- normalised response [4]: 103%
- normalised response [5]: 89.8%
- normalised response [6]: 102%
- normalised response [7]: 101%
- normalised response [8]: 101%
- normalised response [9]: 94.7%
- normalised response [10]: 108%
- normalised response [11]: 97.4%
- normalised response [12]: 93.5%
- normalised response [13]: 104%
- normalised response [14]: 118%
- normalised response [15]: 104%
- normalised response [16]: 99.9%
- normalised response [17]: 108%
- normalised response [18]: 109%
- normalised response [19]: 96.8%
- normalised response [20]: 93%
- normalised response [21]: 68.1%
- normalised response [22]: 101%
- normalised response [23]: 62.7%
- normalised response [24]: 105%
- normalised response [25]: 104%
- normalised response [26]: 116%
- normalised response [27]: 99.5%
- normalised response [28]: 99%
- normalised response [29]: 68.4%
- normalised response [30]: 95.2%
- normalised response [31]: 99.8%
- normalised response [32]: 107%
- normalised response [33]: 113%
- normalised response [34]: 101%
- normalised response [35]: 82.2%
- normalised response [36]: 103%
- normalised response [37]: 104%

SMILES: O=C(/C=C/c1cccnc1)NCCCCC1CCN(C(=O)c2ccccc2)CC1 [Daporinad] (1000 nM)
- normalised response [1]: 19.9%
- normalised response [2]: 6.81%
- normalised response [3]: 14%
- normalised response [4]: 0.79%
- normalised response [5]: 15.9%
- normalised response [6]: 14.3%
- normalised response [7]: 17.5%
- normalised response [8]: 4.62%
- normalised response [9]: 14.8%
- normalised response [10]: 13.2%
- normalised response [11]: 110%
- normalised response [12]: 4.89%
- normalised response [13]: 37.5%
- normalised response [14]: 138%
- normalised response [15]: 103%
- normalised response [16]: 51.5%
- normalised response [17]: 9.14%
- normalised response [18]: 0.76%
- normalised response [19]: 19.2%
- normalised response [20]: 97.5%
- normalised response [21]: 73.1%
- normalised response [22]: 101%
- normalised response [23]: 49.6%
- normalised response [24]: 108%
- normalised response [25]: 93.5%
- normalised response [26]: 67.6%
- normalised response [27]: 101%
- normalised response [28]: 99.5%
- normalised response [29]: 105%
- normalised response [30]: 88.1%
- normalised response [31]: 97.3%
- normalised response [32]: 108%
- normalised response [33]: 91.1%
- normalised response [34]: 98.8%
- normalised response [35]: 93.1%
- normalised response [36]: 90.5%
- normalised response [37]: 117%
